Source: patent EP0083750A1, “Antimycotic azolyl butanols” (BAYER AG, priority 1981, dated 1983)
Values after ≈ are worked out from the molar mass of the structure shown. Counter-ions that a name gives are not always drawn.

What was measured:
Assay type in all cases: cell-based
[1] = system: Microsporum canis; assay: Antimycotic in-vitro activity, serial dilution test (MIC); conditions: 96 h, Reihenverdünnungstest, 5 x 10^4 Keimen/ml Substrat, Sabourand's milieu d'epreuve, 20°C, 96 Stunden, read-out: MHK-Werte in γ/ml Nährmedium, Microsporum canis
Description: (§1) Versuchsbeschreibung: • Die in-vitro-Prüfungen wurden im Reihenverdünnungstest mit Keiminokula von durchschnittlich 5 x 10^4 Keimen/ml Substrat durchgeführt. Als Nährmedium dienten • a) für Dermatophyten und Schimmelpilze: Sabourand's milieu d'epreuve • b) für Hefen: • Fleischextrakt-Traubenzucker-Bouillon.
(§2) Die Bebrütungstemperatur betrug 20°C, die Bebrütungsdauer lag bei 24 bis 96 Stunden bei Hefen und 96 Stunden bei Dermatophyten und Schimmelpilzen.

[2] = system: Trichophyton mentagr.; assay: as above; conditions: 96 h, Reihenverdünnungstest, 5 x 10^4 Keimen/ml Substrat, Sabourand's milieu d'epreuve, 20°C, 96 Stunden, read-out: MHK-Werte in γ/ml Nährmedium, Trichophyton mentagr.
Description: as §1, §2

[3] = system: Torulopsis glabrata; assay: as above; conditions: Nakaseomyces glabratus; Reihenverdünnungstest, 5 x 10^4 Keimen/ml Substrat, Fleischextrakt-Traubenzucker-Bouillon, 20°C, 24 bis 96 Stunden; read-out: MHK-Werte in γ/ml Nährmedium, Torulopsis glabrata
Description: as §1, §2

[4] = system: Aspergillus fumig.; assay: as above; conditions: 96 h, Reihenverdünnungstest, 5 x 10^4 Keimen/ml Substrat, Sabourand's milieu d'epreuve, 20°C, 96 Stunden, read-out: MHK-Werte in γ/ml Nährmedium, Aspergillus fumig.
Description: as §1, §2

[5] = system: Candida albicans; assay: as above; conditions: Reihenverdünnungstest, 5 x 10^4 Keimen/ml Substrat, Fleischextrakt-Traubenzucker-Bouillon, 20°C, 24 bis 96 Stunden, read-out: MHK-Werte in γ/ml Nährmedium, Candida albicans
Description: as §1, §2

[6] = system: Dermatophyten, Schimmelpilze, Hefen; assay: Antimycotic in-vitro activity, serial dilution test, overall comparison with prior art; conditions: in-vitro Reihenverdünnungstest
Description: as §1, §2

Row | Compound | MIC [1] [µg/mL] | MIC [2] [µg/mL] | MIC [3] [µg/mL] | MIC [4] [µg/mL] | MIC [5] [µg/mL] | antimykotische Wirkung im Vergleich zu den bekannten Verbindungen (A) und (B) [6]
1 | CC(C)(Oc1ccc(Cl)cc1Cl)C(O)C(Cc1ccc(Cl)cc1)n1cncn1 (centres unmarked) [Beispiel 1, 5-(4-Chlorphenyl)-2-(2,4-dichlorphen-oxy)-2-methyl-4-(1,2,4-triazol-1-yl)-pentan-3-ol-hydrochlorid] | 64 | 2 | 64 | 64 | 16 | bessere antimykotische Wirkung
2 | CC(C)(COc1ccc(Cl)cc1)C(O)C(CC1CCCCC1)n1cncn1 (centres unmarked) [Beispiel 2, 1-(4-Chlorphenoxy)-5-cyclohexyl-2,2-dimethyl-4-(1,2,4-triazol-1-yl)-pentan-3-ol] | 2 (≈ 5.1 µM) | < 1 | < 1 | 2 (≈ 5.1 µM) | < 1 | bessere antimykotische Wirkung
3 | CC(C)(CSc1ccc(Cl)cc1)C(O)Cn1ccnc1 (centres unmarked) [Beispiel 3, 4-(4-Chlorphenylmercapto)-3,3-dimethyl-1-(imidazol-1-yl)-butan-2-ol] | 2 (≈ 6.43 µM) | 8 (≈ 25.7 µM) | 2 (≈ 6.43 µM) | 16 (≈ 51.5 µM) | 2 (≈ 6.43 µM) | bessere antimykotische Wirkung
4 | CC(C)(COc1ccc(Cl)cc1)C(O)Cn1cncn1 (centres unmarked) [Beispiel 4] | 8 (≈ 27 µM) | 16 (≈ 54.1 µM) | > 64 | 16 (≈ 54.1 µM) | 32 (≈ 108 µM) | bessere antimykotische Wirkung
5 | COCC(C)(C)C(O)C(Cc1ccc(Cl)cc1Cl)n1cncn1 (centres unmarked) [Beispiel 7] | 8 (≈ 22.3 µM) | 8 (≈ 22.3 µM) | 16 (≈ 44.7 µM) | 64 (≈ 179 µM) | 8 (≈ 22.3 µM) | bessere antimykotische Wirkung
6 | COCC(C)(C)C(O)C(Cc1ccc(Cl)cc1)n1cncn1 (centres unmarked) [Beispiel 9] | 4 (≈ 12.4 µM) | 4 (≈ 12.4 µM) | 32 (≈ 98.8 µM) | 16 (≈ 49.4 µM) | 8 (≈ 24.7 µM) | bessere antimykotische Wirkung
7 | Cc1ccc(CC(C(O)C(C)(C)COc2ccc(Cl)cc2)n2cncn2)cc1 (centres unmarked) [Beispiel 10] | < 1 | < 1 | < 1 | 4 (≈ 10 µM) | < 1 | bessere antimykotische Wirkung
8 | CC(C)(Oc1ccc(Cl)cc1Cl)C(O)C(Cc1ccc(Cl)cc1Cl)n1cncn1 (centres unmarked) [Beispiel 25] | 8 (≈ 16.8 µM) | < 1 | 64 (≈ 135 µM) | > 64 | > 64 | bessere antimykotische Wirkung
9 | CC(C)(Oc1ccc(Cl)cc1)C(O)C(Cc1ccccc1)n1cncn1 (centres unmarked) [Beispiel 26] | < 1 | < 1 | 4 (≈ 10.8 µM) | 8 (≈ 21.5 µM) | < 1 | bessere antimykotische Wirkung
10 | CC(C)(Oc1ccc(Cl)cc1)C(O)C(Cc1ccc(Cl)cc1Cl)n1cncn1 (centres unmarked) [Beispiel 27] | 4 (≈ 9.08 µM) | < 1 | < 1 | > 64 | < 1 | bessere antimykotische Wirkung
11 | CC(C)(Oc1ccc(Cl)cc1Cl)C(O)C(Cc1ccccc1)n1cncn1 (centres unmarked) [Beispiel 28] | 4 (≈ 9.84 µM) | 2 (≈ 4.92 µM) | 64 (≈ 158 µM) | 16 (≈ 39.4 µM) | 16 (≈ 39.4 µM) | bessere antimykotische Wirkung
12 | CC(C)(Oc1ccc(Cl)cc1)C(O)C(Cc1c(Cl)cccc1Cl)n1cncn1 (centres unmarked) [Beispiel 29] | 4 (≈ 9.08 µM) | < 1 | 4 (≈ 9.08 µM) | > 64 | < 1 | bessere antimykotische Wirkung
13 | CC(C)(Oc1ccc(Cl)cc1)C(O)C(CC1CCCCC1)n1cncn1 (centres unmarked) [Beispiel 31] | 32 (≈ 84.7 µM) | 2 (≈ 5.29 µM) | 4 (≈ 10.6 µM) | 8 (≈ 21.2 µM) | < 1 | bessere antimykotische Wirkung
14 | CC(C)(COc1ccc(Br)cc1)C(O)C(CC1CCCCC1)n1cncn1 (centres unmarked) [Beispiel 35] | 8 (≈ 18.3 µM) | < 1 | < 1 | < 1 | 32 (≈ 73.3 µM) | bessere antimykotische Wirkung
15 | CC(C)(CSc1ccccc1)C(O)C(Cc1ccc(Cl)cc1)n1cncn1 (centres unmarked) [Beispiel 37] | 4 (≈ 9.95 µM) | < 1 | 2 (≈ 4.98 µM) | 64 (≈ 159 µM) | 4 (≈ 9.95 µM) | bessere antimykotische Wirkung
16 | CC(C)(CSc1ccc(Cl)cc1)C(O)C(Cc1ccc(Cl)cc1)n1cncn1 (centres unmarked) [Beispiel 38] | < 1 | < 1 | < 1 | 64 (≈ 147 µM) | < 1 | bessere antimykotische Wirkung
17 | CC(C)(CSc1ccc(Cl)cc1)C(O)C(Cc1ccc(Cl)cc1Cl)n1cncn1 (centres unmarked) [Beispiel 39] | 16 (≈ 34 µM) | < 1 | < 1 | 64 (≈ 136 µM) | < 1 | bessere antimykotische Wirkung
18 | CC(C)(CSc1ccc(Cl)cc1)C(O)C(Cc1ccc(F)cc1)n1cncn1 (centres unmarked) [Beispiel 40] | < 1 | < 1 | 4 (≈ 9.52 µM) | < 1 | < 1 | 
19 | CCCCC(C(O)C(C)(C)CSc1ccc(Cl)cc1)n1cncn1 (centres unmarked) [Beispiel 41] | < 1 | < 1 | 2 (≈ 5.44 µM) | > 64 | < 1 | bessere antimykotische Wirkung
20 | CCOCC(C)(C)C(O)C(Cc1ccc(Cl)cc1)n1cncn1 (centres unmarked) [Beispiel 42] | 8 (≈ 23.7 µM) | < 1 | 16 (≈ 47.4 µM) | 8 (≈ 23.7 µM) | 2 (≈ 5.92 µM) | bessere antimykotische Wirkung
21 | CC(C)(COc1ccc(Br)cc1)C(O)C(CCOc1ccc(Cl)cc1Cl)n1cncn1 (centres unmarked) [Beispiel 45] | 8 (≈ 15.1 µM) | < 1 | 4 (≈ 7.56 µM) | 32 (≈ 60.5 µM) | < 1 | bessere antimykotische Wirkung
22 | CCCCC(C(O)C(C)(C)Oc1ccc(Cl)cc1Cl)n1cncn1 (centres unmarked) [Beispiel 51] | 2 (≈ 5.37 µM) | < 1 | 8 (≈ 21.5 µM) | 8 (≈ 21.5 µM) | 2 (≈ 5.37 µM) | bessere antimykotische Wirkung
23 | CCCCC(C(O)C(C)(C)Oc1ccc(Cl)cc1)n1cncn1 (centres unmarked) [Beispiel 52] | 2 (≈ 5.92 µM) | 2 (≈ 5.92 µM) | 4 (≈ 11.8 µM) | 16 (≈ 47.4 µM) | < 1 | bessere antimykotische Wirkung
